Laboratory results taken from PMC7717570, “Deciphering the enzymatic target of a new family of antischistosomal agents bearing a quinazoline scaffold using complementary computational tools” (Journal of Enzyme Inhibition and Medicinal Chemistry, 2020).
Values joined by “and” are separate entries in the source; they are usually repeats but may differ in a detail not shown here. Identical values can stand only once.

Key:
[1] = Microsomal stability, mouse liver microsomes (S9), Phase-I (CYP450-NADPH); assay type: in vitro ADME; conditions: CYP450-NADPH, 5 µM
Description: (§1) Mouse or human liver microsomes (S9), reduced nicotinamide adenine dinucleotide phosphate (NADPH) generating system solutions and uridine glucuronosyltransferase (UGT) reaction mix (BD Biosciences) were kept at −80 °C. The test compounds and reference compound diclofenac were formulated in DMSO at […]. The assay was carried out based on the BD Biosciences Guidelines for Use (TF000017 Rev1.0) with minor adaptations. The metabolic stability of the compounds was studied through the CYP450 superfamily (Phase-I metabolism) by fortification with NADPH and through UGT enzymes (Phase-II metabolism) by fortification with uridine diphosphate glucuronic acid (UDPGA). For CYP450 and other NADPH dependent enzymes, the compounds were incubated at 5 µM together with 0.5 mg/mL S9 in potassium phosphate buffer in a reaction started by the addition of 1 mM NADP. At defined time points, 20 µL was withdrawn from the reaction mixture and 80 µL cold acetonitrile (ACN) was added to inactivate the enzymes and precipitate the protein. The mixture was vortexed for 30 s and centrifuged at 4 °C for 5 min to collect the supernatant. For UGT enzymes, the compounds were incubated at 5 µM together with 0.5 mg/mL S9 in a reaction started by the addition of 2 mM UDPGA cofactor. The loss of parent compound was determined using liquid chromatography (UPLC) (Waters Aquity^TM) coupled with tandem quadrupole mass spectrometry (MS^2) (Waters Xevo^TM), equipped with an electrospray ionisation (ESI) interface and operated in multiple reaction monitoring (MRM) mode.

[2] = Microsomal stability, mouse liver microsomes (S9), Phase-II (UGT enzymes); assay type: in vitro ADME; conditions: UGT enzymes, 5 µM
Description: as §1

[3] = Microsomal stability, human liver microsomes (S9), Phase-I (CYP450-NADPH); assay type: in vitro ADME; conditions: CYP450-NADPH, 5 µM
Description: as §1

[4] = Microsomal stability, human liver microsomes (S9), Phase-II (UGT enzymes); assay type: in vitro ADME; conditions: UGT enzymes, 5 µM
Description: as §1

[5] = system: Schistosoma mansoni mature worms; test: In vitro S. mansoni worm killing; conditions: Schistosoma mansoni, 120 h, day 5, initial test (Table 2), read-out: Worm killing (% of total)
Description: The percentage reduction of worm or egg burden in each treated group was calculated. […] Results are expressed as mean ± SEM. A two-tailed, unpaired Student’s t-test was used to detect the significance of difference between the means of different groups. […] Stock solutions of 5 mM PZQ and the quinazoline derivatives 2–13 were prepared in DMSO. Concentrations of 100 µM, 50 µM, 25 µM, 10 µM and 5 µM were freshly prepared on the day of experiment in RPMI-1640 medium. All compounds were initially tested at 100 and 50 µM; those showing worm killing were further tested at 25, 10 and 5 µM. Worms were obtained from SBSC of TBRI. Six to eight worms were placed in 12-well tissue culture plates and fresh RPMI-1640 medium (supplemented with glutamine, 20% newborn calf serum and streptomycin, penicillin, and gentamicin), containing the indicated concentration of the test compound was added[20]^,[21]. Worms were incubated overnight in a CO2 incubator at 37 °C. On the 2nd day, worms were examined by microscopy, washed three times with normal saline, fresh medium was added and the incubation was continued. On the 3rd day, worm motility was observed and on the 4th day, medium was changed again. On day 5 (end of the observation period), worms were microscopically examined for their motility and appearance. Each concentration was tested in duplicate, and the final recording of percent worm mortality was determined as the number of dead worms [contracted and opaque] divided by the total number of worms × 100. Negative controls used medium without additions or medium with 2% DMSO; positive control media containing identical concentrations of PZQ were tested in parallel.

[6] = system: Schistosoma mansoni worm couples; test: S. mansoni ovipositing capacity and coupling; conditions: initial test (Table 2); for inhibition at 50 µM / inhibition at 100 µM: Schistosoma mansoni, 120 h, read-out: Reduction in number of eggs (%)
Description: Stock solutions of 5 mM PZQ and the quinazoline derivatives 2–13 were prepared in DMSO. Concentrations of 100 µM, 50 µM, 25 µM, 10 µM and 5 µM were freshly prepared on the day of experiment in RPMI-1640 medium. All compounds were initially tested at 100 and 50 µM; those showing worm killing were further tested at 25, 10 and 5 µM. 12-well tissue culture plates were used, each well containing 6–8 worms with at least one worm couple. Worms were incubated overnight in a CO2 incubator at 37 °C. Each concentration was tested in duplicate wells. On day 4, eggs were counted and discarded and the medium was changed. On day 5 (end of observation period) newly deposited eggs were counted. The final egg number is the total count of days 4 and 5 for each concentration tested and the final recording of the percentage of egg reduction was determined as [the total number of eggs on days 4 and 5 of control – the total number of eggs on days 4 and 5 of treated]/the total number of eggs on days 4 and 5 of control × 100.

SMILES	killing at 50 µM [5]	killing at 100 µM [5]	Uncoupling ([6]; 50 µM)	Uncoupling ([6]; 100 µM)	inhibition at 50 µM ([6]; 50 µM)	inhibition at 100 µM ([6]; 100 µM)	also measured
O=C(O)Cc1ccccc1Nc1c(Cl)cccc1Cl [Diclofenac, diclofenac, reference compound]							% Parent compound remaining upon incubation ([1]; 0 min): 100%; % Parent compound remaining upon incubation ([1]; 15 min): 87% and 61%; % Parent compound remaining upon incubation ([1]; 60 min): 48% and 27%; % Parent compound remaining upon incubation ([2]; 0 min): 100%; % Parent compound remaining upon incubation ([2]; 15 min): 41% and 34%; % Parent compound remaining upon incubation ([2]; 30 min): 44% and 32%; % Parent compound remaining upon incubation ([2]; 60 min): 34% and 30%; % Parent compound remaining upon incubation ([3]; 0 min): 100%; % Parent compound remaining upon incubation ([3]; 15 min): 27%; % Parent compound remaining upon incubation ([3]; 30 min): 5%; % Parent compound remaining upon incubation ([3]; 60 min): 1%; % Parent compound remaining upon incubation ([4]; 0 min): 100%; % Parent compound remaining upon incubation ([4]; 15 min): 11%; % Parent compound remaining upon incubation ([4]; 30 min): 9%; % Parent compound remaining upon incubation ([4]; 60 min): 9%
O=c1c2ccccc2n(Cc2ccc(C(F)(F)F)cc2)c(=O)n1Cc1ccc(F)cc1 [compound 2, 3-(4-Fluorobenzyl)-1-(4-(trifluoromethyl)benzyl)quinazolin-2,4(1H,3H)-dione]	0%	100%	No	Yes	100%	100%	
COc1ccc(Cn2c(=O)c3ccccc3n(Cc3ccc(C(F)(F)F)cc3)c2=O)cc1 [compound 3, 1-(4-(Trifluoromethyl)benzyl)3-(4-methoxybenzyl)quinazolin-2,4(1H,3H)-dione]	0%	75%	Yes	Yes	100%	100%	
O=c1c2cc(Br)ccc2n(Cc2ccc(C(F)(F)F)cc2)c(=O)n1Cc1ccc(F)cc1 [compound 4, 6-Bromo-3-(4-fluorobenzyl)-1-(4-(trifluoromethyl)benzyl)quinazolin-2,4(1H,3H)-dione]	13%	100%	Yes	Yes	100%	100%	
COc1ccc(Cn2c(=O)c3cc(Br)ccc3n(Cc3ccc(C(F)(F)F)cc3)c2=O)cc1 [compound 5, 6-Bromo-1-(4-(trifluoromethyl)benzyl)-3-(4-methoxybenzyl)quinazolin-2,4(1H,3H)-dione]	0%	100%	No	Yes	31%	100%	
O=c1c2ccc(Br)cc2n(Cc2ccc(C(F)(F)F)cc2)c(=O)n1Cc1ccc(F)cc1 [compound 6, 7-Bromo-3-(4-fluorobenzyl)-1-(4-(trifluoromethyl)benzyl)quinazolin-2,4(1H,3H)-dione]	0%	88%	Yes	Yes	100%	100%	
COc1ccc(Cn2c(=O)c3ccc(Br)cc3n(Cc3ccc(C(F)(F)F)cc3)c2=O)cc1 [compound 7, 7-Bromo-1-(4-(trifluoromethyl)benzyl)-3-(4-methoxybenzyl)quinazolin-2,4(1H,3H)-dione]	0%	0%	No	No	35%	50%	
O=c1c2cc(Cl)ccc2n(Cc2ccc(C(F)(F)F)cc2)c(=O)n1Cc1ccc(F)cc1 [compound 8, 6-Chloro-3-(4-fluorobenzyl)-1-(4-(trifluoromethyl)benzyl)quinazolin-2,4(1H,3H)-dione]	0%	100%	Yes	Yes	100%	100%	
COc1ccc(Cn2c(=O)c3cc(OC)c(OC)cc3n(Cc3ccc(C(F)(F)F)cc3)c2=O)cc1 [compound 11, 1-(4-(Trifluoromethyl)benzyl)-6,7-dimethoxy-3-(4-methoxybenzyl)quinazolin-2,4(1H,3H)-dione]	0%	86%	Yes	Yes	100%	100%	
Cc1cc(Br)c2c(c1)c(=O)n(Cc1ccc(F)cc1)c(=O)n2Cc1ccc(C(F)(F)F)cc1 [compound 12, 8-Bromo-3-(4-fluorobenzyl)-1-(4-(trifluoromethyl)benzyl)-6-methylquinazolin-2,4(1H,3H)-dione]	0%	0%	No	Yes	50%	100%	
COc1ccc(Cn2c(=O)c3cc(C)cc(Br)c3n(Cc3ccc(C(F)(F)F)cc3)c2=O)cc1 [compound 13, 8-Bromo-1-(4-(trifluoromethyl)benzyl)-3-(4-methoxybenzyl)-6-methylquinazolin-2,4(1H,3H)-dione]	0%	33%	Yes	Yes	100%	100%	
